Earlier results on 2 compounds are cited in patent US20110263659A1, “Analogs of 1-Methylnicotinamide” (Cortria Corporation, priority 2008, published 2011).

The conditions of data set [1]: human subjects; studies from Smolenski et al.
The test system of data set [2] is prostacyclin (PGI2) release. The note with it: preclinical; PCT/IB06/004013, PCT/EP05/050057, US 11/715,660.
The mark [3] stands for this setting: di-hydro-MNA 1 mmol/kg s.c., HPLC.

A value given as a limit tells only on which side of the number the result lay.

In the case of 1-Methylnicotinamide [1-MNA], the half life in data set [1] was 2 to 3 h. For the same compound, in data set [2], the “ability to stimulate the release of prostacyclin (PGI2)” value is “ability to stimulate the release of prostacyclin (PGI2)”.
As to `CN1C=CCC(C(N)=O)=C1` [di-hydro-MNA, 1,4-dihydro-1-methylnicotinamide], the “increase of brain tissue levels of 1-MNA (factor)” value (di-hydro-MNA 1 mmol/kg s.c.) is recorded as “twenty”. Further, under setting [3], the “increase in liver 1-MNA levels” value is recorded as 9 fold and the “increase in plasma 1-MNA levels” value is 4 fold. Also, under “di-hydro-MNA 1-3 mmol/kg s.c.”, the “maximum 1-MNA levels in brain extracellular fluid” value was > 10 µM.
